Results published in patent publication US20260069594A1, “USE OF AN AGENT CAPABLE OF INHIBITING THE ACTIVATION OF MAIT CELLS FOR THE TREATMENT OF RHEUMATOID ARTHRITIS” (INSTITUT NATIONAL DE LA SANTÉ ET DE LA RECHERCHE MÉDICALE, priority 2022, published 2026).

Experiments:
MAIT cells = experiment: mBSA-induced arthritis in wild type mice treated with Ac6FP or PBS; type: in vivo; details: wild type male mice, intraperitoneal twice a week
Description: Arthritis was induced by intra-articular injection of methylated bovine serum albumin (mBSA) in MR1^−/− (depleted in MAIT cells) and wild type C57BL/6 mice, previously immunized with mBSA. We included 9 mice in each group, only females, which were 6 to 8 weeks old. Mice were daily evaluated for signs of joint inflammation, assessed by measuring tarsal thickness and scored on a scale of 0-4, where 0=no change, 1=local swelling and redness of digits, 2=mild swelling and redness, 3=severe swelling and redness, 4=necrosis. Mice were sacrificed on day 8, and the paws were separated, fixed with 4% paraformaldehyde and decalcified for histopathological assessment. All mice developed arthritis, with a peak of inflammation at day 1.
Arthritis was induced by intra-articular injection of methylated bovine serum albumin (mBSA) in wild type mice, treated with Acetyl-6-formylpterin (Ac6FP), a non-activating ligand of MAIT cells or PBS, previously immunized with mBSA. Ac6FP or PBS were injected twice a week in intraperitoneal. We included 6 wild type mice in each group, only males, which were 8 weeks old. Mice were daily evaluated as described previously. All mice developed arthritis, with a peak of inflammation at day 1.
Values are the mean+/−SEM of 6 mice in each group. Test: Student T test. Ac6FP: Acetyl-6-formylpterin. AUC: Area Under Curve. […]

rheumatoid arthritis = details: cited from earlier work

Structure (SMILES) | clinical score (scale 0-4) compared to PBS group (MAIT cells; daily evaluation) | area under curve (AUC) of clinical score, median (MAIT cells; n=6, vs. 5.5 in PBS group, p=0.07) | patients reaching remission states (rheumatoid arthritis; RA patients at 6-12 months) | patients reaching low disease activity states (rheumatoid arthritis; early RA patients, with or without corticosteroids)
CC(=O)Nc1nc2ncc(C=O)nc2c(=O)[nH]1 [Ac6FP, Acetyl-6-formylpterin] | lower clinical score | 3 |  | 
CN(Cc1cnc2nc(N)nc(N)c2n1)c1ccc(C(=O)N[C@@H](CCC(=O)O)C(=O)O)cc1 [MTX, methotrexate] |  |  | 10-20% | 25-50%
